Like-named read-outs stand apart in the source and are kept apart here.
Experiment: PK Phase (Group 2): plasma concentrations and pharmacokinetics of Compound 18 and its metabolite Compound 4 after once daily ocular instillation of Compound 18 nanosuspension for 7 days
Assay type: in vivo, New Zealand white rabbits
Text: This example illustrates the procedures and results for the levels of Compound 18 and its metabolite Compound 4 in plasma and ocular tissues of normotensive rabbits following ocular instillation of Compound 18 once daily for 7 consecutive days.
Twenty five (25) male New Zealand white rabbits were divided into 5 groups of varying amounts of animals per group.
The Test article, Compound 18 was formulated as a 2% nanosuspension in DI water containing 0.2% PS80 (polyoxyethylenesorbitan, monooleate (Tween 80)) and 0.4% HPMC (hydroxypropylmethylcellulose) at pH 6.77. Referred to herein as “Compound 18 nanosuspension.”
The study consisted of three groups (Groups 1-3) of 19 male rabbits (NZW) that underwent once daily morning ocular installation (1 eyedrop) for 7 consecutive days (Day 0-6). Groups 4-5 each consisted of 3 male rabbits (NZW) that were not dosed.
Blood samples (1 mL) were collected from the jugular vein at the intervals set out below for each group. The samples were then inverted several times following collection and held on wet ice until centrifuged. Samples were centrifuged within 60 minutes of collection under refrigeration (set at 5° C. for 10 minutes at 2000 g. […]
Plasma and tissue samples from treated animals (Groups 1-3) were analyzed for Compound 18 and its metabolite Compound 4 concentrations by LC-MS/MS.
Pharmacokinetic analysis was conducted using WinNonlin Version 6.2.1 (Pharsight, Mountain View, Calif.), operating as a validated software system. Noncompartmental analysis was conducted using the extravascular administration model for ocular instillation dosing.
The peak plasma concentration, time to achieve peak plasma concentration, half-life, and area under the plasma concentration-time curve (Cmax, Tmax, T1/2, and AUC) were calculated from the PK phase individual animal plasma concentrations for each sampling time/dose group for Compound 18 and its metabolite Compound 4.
BA Assay: Quantitation Range 0.05 to 100 ng/mL for Compound 18, 0.15 to 100 ng/mL for Compound 4.
Plasma calibration standards (PLSTD-A) with Compound 18 concentrations ranging from 0.0500 to 100 ng/mL were prepared by spiking control rabbit plasma with appropriate calibration curve spiking solutions (SS-A). PLQC-A samples with concentrations of 0.150, 5.00, 50.0, and 80.0 ng/mL were prepared by spiking control rabbit plasma with appropriate SS-A-QC spiking solutions.
Plasma calibration standards (PLSTD-B) with Compound 4 concentrations ranging from 0.150 to 100 ng/mL were prepared by spiking control rabbit plasma with appropriate calibration curve spiking solutions (SS-B). PLQC-B samples with concentrations of 0.450, 5.00, 50.0, and 80.0 ng/mL were prepared by spiking control rabbit plasma with appropriate SS-B-QC spiking solutions. PLQC-B-Dil samples at 800 ng/mL were prepared by spiking control rabbit plasma with the SS-B-QC-Dil spiking solution at 16,000 ng/mL, and then diluted 20× with control rabbit plasma prior to extraction.
1. Thaw plasma standards, plasma QC samples, ocular tissue QC samples, incurred plasma samples and ocular tissue samples (AH/VH) (if applicable) on wet ice. Control plasma can be thawed in tepid water. Vortex before taking aliquots.
2. Pipet 50 μL of water for Reagent Blank, 50 μL of control plasma for Double Blank and Blank, 50 μL of pre-spiked plasma for Standards and QC samples, 50 μL of incurred plasma samples (if applicable) into a 96 well plate.
5. Add 200 μL of working internal standard (WIS) solution to all remaining samples.
6. Seal the plate and vortex for approximately 5 minutes. Centrifuge the plate at 3500 rpm for 10 minutes at ˜4° C.
7. Transfer ˜200 μL of each sample supernatant into the appropriate wells of a 96 well plate. Submit for LC MS/MS analysis.
A total of 25 rabbits were used for this study, including 19 treated rabbits and 6 control rabbits. […]

SMILES: CCCc1nn(C)c2c(=O)[nH]c(-c3cc(S(=O)(=O)N4CC(CCCO[N+](=O)[O-])C4)ccc3OCC)nc12 [Compound 18, 3-(1-((4-ethoxy-3-(1-methyl-7-oxo-3-propyl-6,7-dihydro-1H-pyrazolo[4,3-d]pyrimidin-5-yl)phenyl)sulfonyl)azetidin-3-yl)propyl nitrate]
- Day 7 Compound 18 Plasma Concentration (0.5 h, animal 207665): BQL (BQL = Below lower limit of quantitation (0.0500 ng/mL for Compound 18)
- Day 1 Compound 18 Plasma Concentration (1 h, animal 207664): BQL^a (BQL = Below lower limit of quantitation (0.0500 ng/mL for Compound 18)
- Day 1 Compound 18 Plasma Concentration (1 h, animal 207665): BQL (BQL = Below lower limit of quantitation (0.0500 ng/mL for Compound 18)
- Day 7 Compound 18 Plasma Concentration (1 h, animal 207665): BQL (BQL = Below lower limit of quantitation (0.0500 ng/mL for Compound 18)
- Day 1 Compound 18 Plasma Concentration (2 h, animal 207664): BQL (BQL = Below lower limit of quantitation (0.0500 ng/mL for Compound 18)
- Day 1 Compound 18 Plasma Concentration (2 h, animal 207665): BQL (BQL = Below lower limit of quantitation (0.0500 ng/mL for Compound 18)
- Day 7 Compound 18 Plasma Concentration (2 h, animal 207665): BQL (BQL = Below lower limit of quantitation (0.0500 ng/mL for Compound 18)
- Day 1 Compound 18 Plasma Concentration (2 h, animal 207666): BQL (BQL = Below lower limit of quantitation (0.0500 ng/mL for Compound 18)
- Day 7 Compound 18 Plasma Concentration (2 h, animal 207667): BQL (BQL = Below lower limit of quantitation (0.0500 ng/mL for Compound 18)
- Day 1 Compound 18 Plasma Concentration (4 h, animal 207664): BQL (BQL = Below lower limit of quantitation (0.0500 ng/mL for Compound 18)
- Day 7 Compound 18 Plasma Concentration (4 h, animal 207664): BQL (BQL = Below lower limit of quantitation (0.0500 ng/mL for Compound 18)
- Day 1 Compound 18 Plasma Concentration (4 h, animal 207665): BQL (BQL = Below lower limit of quantitation (0.0500 ng/mL for Compound 18)
- Day 7 Compound 18 Plasma Concentration (4 h, animal 207665): BQL (BQL = Below lower limit of quantitation (0.0500 ng/mL for Compound 18)
- Day 1 Compound 18 Plasma Concentration (4 h, animal 207667): BQL (BQL = Below lower limit of quantitation (0.0500 ng/mL for Compound 18)
- Day 7 Compound 18 Plasma Concentration (4 h, animal 207667): BQL (BQL = Below lower limit of quantitation (0.0500 ng/mL for Compound 18)
- Day 1 Compound 18 Plasma Concentration (8 h, animal 207664): BQL (BQL = Below lower limit of quantitation (0.0500 ng/mL for Compound 18)
- Day 7 Compound 18 Plasma Concentration (8 h, animal 207664): BQL (BQL = Below lower limit of quantitation (0.0500 ng/mL for Compound 18)
- Day 1 Compound 18 Plasma Concentration (8 h, animal 207665): BQL (BQL = Below lower limit of quantitation (0.0500 ng/mL for Compound 18)
- Day 1 Compound 18 Plasma Concentration (8 h, animal 207666): BQL (BQL = Below lower limit of quantitation (0.0500 ng/mL for Compound 18)
- Day 1 Compound 18 Plasma Concentration (8 h, animal 207667): BQL (BQL = Below lower limit of quantitation (0.0500 ng/mL for Compound 18)
- Day 7 Compound 18 Plasma Concentration (8 h, animal 207667): BQL (BQL = Below lower limit of quantitation (0.0500 ng/mL for Compound 18)
- Day 1 Compound 18 Plasma Concentration (24 h, animal 207664): BQL (BQL = Below lower limit of quantitation (0.0500 ng/mL for Compound 18)
- Day 7 Compound 18 Plasma Concentration (24 h, animal 207664): BQL (BQL = Below lower limit of quantitation (0.0500 ng/mL for Compound 18)
- Day 1 Compound 18 Plasma Concentration (24 h, animal 207665): BQL (BQL = Below lower limit of quantitation (0.0500 ng/mL for Compound 18)
- Day 7 Compound 18 Plasma Concentration (24 h, animal 207665): BQL (BQL = Below lower limit of quantitation (0.0500 ng/mL for Compound 18)
- Day 1 Compound 18 Plasma Concentration (24 h, animal 207667): BQL (BQL = Below lower limit of quantitation (0.0500 ng/mL for Compound 18)
- In-life observations (Groups 1-3, Compound 18 nanosuspension 1 drop/eye/day for 7 days, except animal #207664 discolored skin and rapid respiratory rate on Day 7): normal following dosing
- concentration at 0.5 h (male, New Zealand white, rabbit, plasma, other: ocular instillation (eye drop), 0.821 mg/kg/day, 0.5 h, Mean of 4 animals, BQL set to 0, read-out: Day 7 Compound 18 Plasma Concentration): 0.0811 ng/mL
- concentration at 0.5 h (male, New Zealand white, rabbit, plasma, other: ocular instillation (eye drop), 0.821 mg/kg/day, 0.5 h, animal 207664, read-out: Day 7 Compound 18 Plasma Concentration): 0.0978 ng/mL
- concentration at 0.5 h (male, New Zealand white, rabbit, plasma, other: ocular instillation (eye drop), 0.821 mg/kg/day, 0.5 h, animal 207666, read-out: Day 7 Compound 18 Plasma Concentration): 0.163 ng/mL
- concentration at 0.5 h (male, New Zealand white, rabbit, plasma, other: ocular instillation (eye drop), 0.821 mg/kg/day, 0.5 h, animal 207667, read-out: Day 7 Compound 18 Plasma Concentration): 0.0634 ng/mL
- concentration at 1 h (male, New Zealand white, rabbit, plasma, other: ocular instillation (eye drop), 0.821 mg/kg/day, 1 h, Mean of 4 animals, BQL set to 0, read-out: Day 7 Compound 18 Plasma Concentration): 0.15 ng/mL
- concentration at 1 h (male, New Zealand white, rabbit, plasma, other: ocular instillation (eye drop), 0.821 mg/kg/day, 1 h, animal 207664, read-out: Day 7 Compound 18 Plasma Concentration): 0.306 ng/mL
- concentration at 1 h (male, New Zealand white, rabbit, plasma, other: ocular instillation (eye drop), 0.821 mg/kg/day, 1 h, animal 207666, read-out: Day 7 Compound 18 Plasma Concentration): 0.131 ng/mL
- concentration at 1 h (male, New Zealand white, rabbit, plasma, other: ocular instillation (eye drop), 0.821 mg/kg/day, 1 h, animal 207667, read-out: Day 7 Compound 18 Plasma Concentration): 0.161 ng/mL
- concentration at 2 h (male, New Zealand white, rabbit, plasma, other: ocular instillation (eye drop), 0.821 mg/kg/day, 2 h, Mean of 4 animals, BQL set to 0, read-out: Day 1 Compound 18 Plasma Concentration): 0.0208 ng/mL
- concentration at 2 h (male, New Zealand white, rabbit, plasma, other: ocular instillation (eye drop), 0.821 mg/kg/day, 2 h, Mean of 4 animals, BQL set to 0, read-out: Day 7 Compound 18 Plasma Concentration): 0.0657 ng/mL
- concentration at 2 h (male, New Zealand white, rabbit, plasma, other: ocular instillation (eye drop), 0.821 mg/kg/day, 2 h, animal 207664, read-out: Day 7 Compound 18 Plasma Concentration): 0.188 ng/mL
- concentration at 2 h (male, New Zealand white, rabbit, plasma, other: ocular instillation (eye drop), 0.821 mg/kg/day, 2 h, animal 207666, read-out: Day 7 Compound 18 Plasma Concentration): 0.0747 ng/mL
- concentration at 2 h (male, New Zealand white, rabbit, plasma, other: ocular instillation (eye drop), 0.821 mg/kg/day, 2 h, animal 207667, read-out: Day 1 Compound 18 Plasma Concentration): 0.083 ng/mL
- concentration at 4 h (male, New Zealand white, rabbit, plasma, other: ocular instillation (eye drop), 0.821 mg/kg/day, 4 h, Mean of 4 animals, BQL set to 0, read-out: Day 1 Compound 18 Plasma Concentration): 0.0164 ng/mL
- concentration at 4 h (male, New Zealand white, rabbit, plasma, other: ocular instillation (eye drop), 0.821 mg/kg/day, 4 h, Mean of 4 animals, BQL set to 0, read-out: Day 7 Compound 18 Plasma Concentration): 0.017 ng/mL
- concentration at 4 h (male, New Zealand white, rabbit, plasma, other: ocular instillation (eye drop), 0.821 mg/kg/day, 4 h, animal 207666, read-out: Day 1 Compound 18 Plasma Concentration): 0.0655 ng/mL
- concentration at 4 h (male, New Zealand white, rabbit, plasma, other: ocular instillation (eye drop), 0.821 mg/kg/day, 4 h, animal 207666, read-out: Day 7 Compound 18 Plasma Concentration): 0.0678 ng/mL
- concentration at 8 h (male, New Zealand white, rabbit, plasma, other: ocular instillation (eye drop), 0.821 mg/kg/day, 8 h, Mean of 4 animals, BQL set to 0, read-out: Day 1 Compound 18 Plasma Concentration): 0 ng/mL

— patent US20220153746A1, “NITROGEN OXIDE-DONATING PDE-5 AND/OR PDE-6 INHIBITOR COMPOUNDS, AND USES THEREOF” (ILDONG PHARMACEUTICAL CO., LTD., priority 2020, published 2022)
